The values below come from patent publication US8049014B2, “Aminoquinoline derivatives, preparation method thereof and pharmaceutical composition comprising the same” (Korea Institute of Science and Technology, priority 2009, dated 2011).

Assay [1] concerns A375 melanoma tumor cells. Kind of assay: Anti-proliferative effect on melanoma tumor cells (MTT reduction assay). Type of assay: cell-based. The procedure:
(§1) 10% of fetal bovine serum (FBS) and 1% of penicillin/streptomycin were put into a Dulbecco's Modified Eagle (DMEM) medium, and A375P tumor cells obtained from ATCC was incubated in the above medium under a 5% CO2 atmosphere at 37° C. A375P cells were taken into 0.05% trypsin-0.02% ethylene-diamine tetraacetic acid (EDTA) and seeded it into wells of 96 well plate with 5×10^3 cells/well, and the viability of the cells was determined with a conventional [3-(4,5-dimethylthiazol-2-yl)-2,5-diphenyltetrazolium bromide, MTT] reduction assay. In the MTT efficacy experimentation, 15 μL of dye per well was put into the wells in accordance with the protocol of CellTiter 96® Assay (Promega), and then incubated for two hours, into which 100 μL of stop solution was added. The resultant was read after 24 hours. After one day of the plating, the obtained material was treated with a compound of the present invention. When it was treated with the compound, 10 mM of stock solution was prepared, and gradually diluted to one-third in dimethyl sulfoxide (DMSO). A test compound plate was prepared with 12 points, into which 0.5 μL was put (final concentration was DMSO 0.5%). Absorbance was read at a wavelength of 590 nm using EnVision 2103 (Perkin Elmer Boston, Mass., US), and GI50 values were calculated using GraphPad Prism 4.0 software.
(§2) GI50 values indicating inhibition of the compounds according to the examples of the present invention and control substances, on the proliferation of A375 melanoma tumor cells and HS27 fibroblasts. Sorafenib (BAY43-9006, Nexavar) which has been known as a substance having a good anti-proliferative effect on the melanoma tumor cells was used as a control substance.
Background: Tetrazolium assays rely on reduction of a dye to a coloured formazan, in cell work by metabolically active cells.

A further assay relates to HS27 fibroblasts. Briefly: Inhibition of proliferation of HS27 fibroblasts (selectivity, MTT reduction assay). The settings on record: Homo sapiens. Type of assay: cell-based. As to the method:
as §1, §2

Setting [2] is: Homo sapiens, A-375, A375 melanoma tumor cells.

Each structure is given as a SMILES string.

Regarding `Nc1cccc2c(Oc3ccc(NC(=O)Nc4ccc(Cl)c(C(F)(F)F)c4)cc3)ccnc12` [Compound 1a, 1-[4-(8-aminoquinolin-4-yloxy)phenyl]-3-(4-chloro-3-trifluoromethylphenyl)urea], the GI50 came to 3.74 µM in assay [1] (setting [2]) and 6.71 µM with HS27 fibroblasts.
For `Nc1cccc2c(Oc3ccc(NC(=O)c4ccc(Cl)c(C(F)(F)F)c4)cc3)ccnc12` [Compound 1b, N-[4-(8-aminoquinolin-4-yloxy)phenyl]-4-chloro-3-trifluoromethylbenzamide], in that order: 5.69 µM and 7.63 µM.
Regarding `CC(=O)Nc1cccc2c(Oc3ccc(NC(=O)Nc4ccc(Cl)c(C(F)(F)F)c4)cc3)ccnc12` [Compound 1c, 1-[4-(8-acetylaminoquinolin-4-yloxy)phenyl]-3-(4-chloro-3-trifluoro-methylphenyl)urea], the GI50 came out at 4.19 µM in assay [1] (setting [2]) and 6.02 µM in the assay on HS27 fibroblasts.
For `CC(=O)Nc1cccc2c(Oc3ccc(NC(=O)c4ccc(Cl)c(C(F)(F)F)c4)cc3)ccnc12` [Compound 1d, N-[4-(8-acetylaminoquinolin-4-yloxy)phenyl]-4-chloro-3-trifluoromethylbenzamide] the same measures were 3.14 µM and 5.47 µM.
On to `O=C(Nc1ccc(Oc2ccnc3c(NC(=O)c4ccccc4)cccc23)cc1)c1ccc(Cl)c(C(F)(F)F)c1` [Compound 1e, N-[4-(8-benzoylaminoquinolin-4-yloxy)phenyl]-4-chloro-3-trifluoromethylbenzamide], for which the 50% growth inhibitory concentration (GI50) in assay [1] (A375 melanoma tumor cells) was 0.8 µM; in assay [1] (setting [2]) it was 0.77 to 0.8 µM; in the assay on HS27 fibroblasts it was greater than 20 µM.
Consider `Nc1cccc2c(Oc3cccc(NC(=O)Nc4ccc(Cl)c(C(F)(F)F)c4)c3)ccnc12` [Compound 1f, 1-[3-(8-aminoquinolin-4-yloxy)phenyl]-3-(4-chloro-3-trifluoromethylphenyl)urea], for which the values for the GI50 (in assay [1] (setting [2]); with HS27 fibroblasts) were 2.56 µM and 10.4 µM, respectively.
As to `Nc1cccc2c(Oc3cccc(NC(=O)c4ccc(Cl)c(C(F)(F)F)c4)c3)ccnc12` [Compound 1g, N-[3-(8-aminoquinolin-4-yloxy)phenyl]-4-chloro-3-trifluoromethylbenzamide], the GI50 was 6.73 µM in assay [1] (setting [2]) and greater than 20 µM in the assay on HS27 fibroblasts.
In the case of `CC(=O)Nc1cccc2c(Oc3cccc(NC(=O)Nc4ccc(Cl)c(C(F)(F)F)c4)c3)ccnc12` [Compound 1h, 1-[3-(8-acetylaminoquinolin-4-yloxy)phenyl]-3-(4-chloro-3-trifluoromethylphenyl)urea], the GI50 in assay [1] (setting [2]) turned out to be 2.32 µM; in the assay on HS27 fibroblasts it was 5.68 µM.
For `CC(=O)Nc1cccc2c(Oc3cccc(NC(=O)c4ccc(Cl)c(C(F)(F)F)c4)c3)ccnc12` [Compound 1i, N-[3-(8-acetylaminoquinolin-4-yloxy)phenyl]-4-chloro-3-trifluoromethylbenzamide], in that order: 3.49 µM and greater than 20 µM.
As for `O=C(Nc1cccc(Oc2ccnc3c(NC(=O)c4ccccc4)cccc23)c1)c1ccc(Cl)c(C(F)(F)F)c1` [Compound 1j, N-[3-(8-benzoylaminoquinolin-4-yloxy)phenyl]-4-chloro-3-trifluoromethylbenzamide], the GI50 in assay [1] (A375 melanoma tumor cells) is 0.78 µM; in assay [1] (setting [2]), 0.77 to 0.8 µM; with HS27 fibroblasts it was greater than 20 µM.
Take `CC(=O)Nc1cccc2c(Oc3cc(NC(=O)c4ccc(Cl)c(C(F)(F)F)c4)ccc3C)ccnc12` [Compound 1k, N-[3-(8-acetylaminoquinolin-4-yloxy)-4-methylphenyl]-4-chloro-3-trifluoromethylbenzamide]: the GI50 in assay [1] (setting [2]) was 1.3 µM; with HS27 fibroblasts it was greater than 20 µM.
For `CC(=O)Nc1cccc2c(Oc3cc(NC(=O)c4cccc(C(F)(F)F)c4)ccc3C)ccnc12` [Compound 1l, N-[3-(8-acetylaminoquinolin-4-yloxy)-4-methylphenyl]-3-trifluoromethylbenzamide], the figures for the concentration for 50% growth inhibition (GI50) (in assay [1] (setting [2]); with HS27 fibroblasts) were 1.28 µM and greater than 20 µM, respectively.
As for `CC(=O)Nc1cccc2c(Oc3cc(NC(=O)c4cc(C(F)(F)F)cc(C(F)(F)F)c4)ccc3C)ccnc12` [Compound 1m, N-[3-(8-acetylaminoquinolin-4-yloxy)-4-methylphenyl]-3,5-bistrifluoromethylbenzamide], the GI50 in assay [1] (A375 melanoma tumor cells) was 0.77 µM; in assay [1] (setting [2]), 0.77 to 0.8 µM; with HS27 fibroblasts, greater than 20 µM.
For `CC(=O)Nc1cccc2c(Oc3cc(NC(=O)c4ccc([N+](=O)[O-])c(C(F)(F)F)c4)ccc3C)ccnc12` [Compound 1n, N-[3-(8-acetylaminoquinolin-4-yloxy)-4-methylphenyl]-4-nitro-3-trifluoromethylbenzamide] the same measures were 0.79 µM, 0.77 to 0.8 µM and greater than 20 µM.
With `CC(=O)Nc1cccc2c(Oc3cc(NC(=O)c4cc(N5CCC(O)CC5)cc(C(F)(F)F)c4)ccc3C)ccnc12` [Compound 1o, N-[3-(8-acetylaminoquinolin-4-yloxy)-4-methylphenyl]-3-(4-hydroxypiperidin-1-yl)-5-trifluoromethylbenzamide], the concentration for 50% growth inhibition (GI50) (in assay [1] (setting [2]); with HS27 fibroblasts) was greater than 20 µM throughout.
`CC(=O)Nc1cccc2c(Oc3cc(NC(=O)c4cc(-n5cnc(C)c5)cc(C(F)(F)F)c4)ccc3C)ccnc12` [Compound 1p, N-[3-(8-acetylaminoquinolin-4-yloxy)-4-methylphenyl]-3-(4-methylimidazol-1-yl)-5-trifluoromethylbenzamide]: the concentration for 50% growth inhibition (GI50) (in assay [1] (setting [2]); in the assay on HS27 fibroblasts) was greater than 20 µM throughout.
With `CC(=O)Nc1cccc2c(Oc3cc(NC(=O)c4ccccc4Cl)ccc3C)ccnc12` [Compound 1q, N-[3-(8-acetylaminoquinolin-4-yloxy)-4-methylphenyl]-2-chlorobenzamide], the results for the GI50 (in assay [1] (setting [2]); with HS27 fibroblasts) were 2.12 µM and greater than 20 µM, respectively.
For `CC(=O)Nc1cccc2c(Oc3cc(NC(=O)c4cc(C)on4)ccc3C)ccnc12` [Compound 1r, N-[3-(8-acetylaminoquinolin-4-yloxy)-4-methylphenyl]-5-methylisoxazole-3-carboxylic acid amide], in that order: greater than 20 µM and greater than 20 µM.
Take `Cc1ccc(NC(=O)c2ccc(Cl)c(C(F)(F)F)c2)cc1Oc1ccnc2c(NC(=O)c3ccccc3)cccc12` [Compound 1s, N-[3-(8-benzoylaminoquinolin-4-yloxy)-4-methylphenyl]-4-chloro-3-trifluoromethylbenzamide]: the figures for the GI50 (in assay [1] (setting [2]); with HS27 fibroblasts) were 1.03 µM and greater than 20 µM, respectively.
For `CNC(=O)c1cc(Oc2ccc(NC(=O)Nc3ccc(Cl)c(C(F)(F)F)c3)cc2)ccn1` [Sorafenib, reference compound], in that order: 5.58 µM and 7.85 µM.

What is called GI50 is the concentration that inhibits growth by half. A low value points to greater sensitivity of the cells.
